These results are taken from ChEMBL document CHEMBL3351562, “Oxo- and thiooxo-imidazo[1,5-c]pyrimidine molecule library: beyond their interest in inhibition of Brucella suis histidinol dehydrogenase, a powerful protection tool in the synthesis of histidine analogues” (Bioorg Med Chem Lett, 2014).

This assay can be described thus: Inhibition of Brucella suis histidinol dehydrogenase assessed as NADH released as a by-product preincubated for 5 min at 30 degC by spectrophotometric method.
With `N[C@@H](Cc1c[nH]cn1)C(=O)Cc1ccc(F)cc1F`, the IC50 (commonly the concentration that gives 50% inhibition) was 0.01 µM.
Under `Cc1ccc(CC(=O)[C@@H](N)Cc2c[nH]cn2)cc1` stands 0.015 µM; under `N[C@@H](Cc1c[nH]cn1)C(=O)Cc1ccc(Br)cc1`, 0.006 µM; under `N[C@@H](Cc1c[nH]cn1)C(=O)Cc1ccc(-c2ccccc2)cc1`, 0.012 µM.
Take `N[C@@H](Cc1c[nH]cn1)C(=O)Cc1ccc(Cl)cc1`: the IC50 turned out to be 0.012 µM.
The same measure for `COC(=O)[C@@H]1Cc2cncn2C(=O)N1`: 532 µM.
Under `O=C(Cc1ccc(Br)cc1)[C@@H]1Cc2cncn2C(=O)N1` stands 98 µM; under `O=C(Cc1ccc(Cl)cc1)[C@@H]1Cc2cncn2C(=O)N1`, 92 µM.
Under `Cc1ccc(CC(=O)[C@@H]2Cc3cncn3C(=O)N2)cc1` stands 113 µM.
Take `O=C(Cc1ccc(F)cc1F)[C@@H]1Cc2cncn2C(=O)N1`: the IC50 came out at 143 µM.
The same measure for `O=C(Cc1ccc(-c2ccccc2)cc1)[C@@H]1Cc2cncn2C(=O)N1`: 86 µM.
Under `CCCCCc1ccc(C#Cc2ccc(CC(=O)[C@@H]3Cc4cncn4C(=O)N3)cc2)cc1` stands 175 µM; under `COC(=O)[C@@H]1Cc2cncn2C(=S)N1`, 18 µM; under `O=C(Cc1ccc(Br)cc1)[C@@H]1Cc2cncn2C(=S)N1`, 105 µM.
`O=C(Cc1ccc(Cl)cc1)[C@@H]1Cc2cncn2C(=S)N1`: the IC50 amounted to 74 µM.
Under `Cc1ccc(CC(=O)[C@@H]2Cc3cncn3C(=S)N2)cc1` stands 95 µM; under `O=C(Cc1ccc(F)cc1F)[C@@H]1Cc2cncn2C(=S)N1`, 95 µM.
The same measure for `O=C(Cc1ccc(-c2ccccc2)cc1)[C@@H]1Cc2cncn2C(=S)N1`: 5 µM; for `CCCCCc1ccc(C#Cc2ccc(CC(=O)[C@@H]3Cc4cncn4C(=S)N3)cc2)cc1`: 322 µM.
The same measure for `CCCCCc1ccc(C#Cc2ccc(CC(=O)[C@@H](N)Cc3c[nH]cn3)cc2)cc1`: 0.009 µM.
